{"source": "patent US5912266A", "about": "“Beta2 integrin cell adhesion molecule inhibitors” (American Home Products Corporation, priority 1997, dated 1999)", "system": "β2 integrin", "experiment": "Adhesion of activated, β2 integrin-expressing HL60 cells to recombinant soluble ICAM-1", "format": "cell-based, human", "details": "for Percent Cells Bound: single well", "experimental": "HL60 cells were provided by the American Type Culture Collection (ATCC No. CCL240) and were used between passages 20 to 30 as the control β2 integrin expressing cells, following stimulation for exactly four days in culture media containing dimethylsulfoxide (DMSO). Culture media was comprised of RPMI 1640 (Gibco No. 3201870AJ) supplemented with Penicillin (100 Units/ml)/Streptomycin Sulfate ([…]) (Gibco No. 600-5145AE), L-Glutamine (2 mM) (Gibco No. 320-5030PG), and 10% heat inactivated fetal bovine serum (FBS, Hyclone No. A-1111L). Fetal bovine serum was heat inactivated by incubating in a 56° C. water bath for 30 minutes. Stimulation of the expression of the β2 integrin on HL60 cells was achieved by growing the cells at a density of 2.5×10^5 cells per ml of culture media for four days in the presence of 1.25% DMSO. Following the removal of the DMSO containing media, the β2 integrin on these cells was activated to a high affinity ICAM-1 binding state by the addition of 0.1 nM of (PMA) and PMN Buffer. This buffer was comprised of Hank's balanced salt solution (HBSS) supplemented with 1.2 mM calcium chloride, 1 mM magnesium chloride, 2% glucose, […] HEPES buffer. The ICAM-1 used to measure the adhesion of β2 integrin-bearing cells was obtained from cloning and expression of recombinant, soluble, human ICAM-1 using a baculovirus expression system and standard molecular biology technology. Soluble ICAM-1 was cloned by cleaving ICAM-1 DNA, purchased from R & D Systems, with restriction enzymes to obtain DNA that codes for the soluble (non-membrane) form of the protein. […] The soluble ICAM-1 was purified by passing the media from the ICAM-1 expressing cells over an anti-ICAM-1 antibody-linked sepharose column prepared using a standard immunoaffinity chromatography kit obtained from Pierce Inc.\n200 ng of purified, recombinant, soluble ICAM-1 contained in 100 μl of PBS was added to wells of a flat bottom, 96 well EIA/RIA plate (Corning No. 25801), covered with an adhesive backed plate sealer (Linbro No. 76-401-05) and incubated for at least 18 hours at 4° C. to allow ICAM-1 to bind to the assay wells, prior to the addition of the β2 integrin expressing HL60 cells.\nHL60 cells were grown in 1.25% DMSO for 4 days and pelleted by centrifugation in a Sorvall RT6000 tabletop centrifuge for 5 minutes, 1000 rotations per minute (rpm), at room temperature. The resulting HL60 cell pellet was resuspended in 50 ml sterile Dulbecco's phosphate buffered saline (dPBS) (Gibco No. 310-4040AJ). The resulting cell pellet was resuspended in 50 ml dPBS and the cell concentration was determined using a hemacytometer. The cells were pelleted as described above and resuspended in PMN Buffer to 15 to 20×10^6 cells/ml. The resuspended HL60 cells were fluorescently labeled by mixing the cells with an equal volume of a 25 μM solution of Calcein AM (Molecular Probes No. C-1430) dye that had been dissolved in PMN Buffer. HL60 cells in the calcein AM solution was incubated in a 37° C. waterbath for 10 minutes with intermittent swirling of the reaction tube. The labeling reaction was stopped by the addition of 13 ml of ice-cold PMN Buffer and the cells were pelleted by centrifugation at 2000 rpm for 5 minutes at 4° C.\nThe labeled cell pellet was resuspended in 15 ml of ice-cold PMN Buffer and the cell density was determined using a hemacytometer. Cells were then pelleted by centrifugation at 2000 rpm for 5 minutes followed by resuspension in ice-cold PMN Buffer to 2×10^5 cells/40 μl. The labeled cell suspension was placed in the dark at room temperature while asperlin containing solutions were prepared.\nAsperlin was solubilized in 100% DMSO at a concentration of 50 mg/ml. This stock was then diluted to 400 μg/ml with PMN Buffer and serial dilutions of the 400 μg/ml asperlin solution were prepared using PMN buffer containing 2% DMSO to obtain solutions ranging from 200 μg/ml to 1.56 μg/ml. […]", "note": "Where “and” joins values, the source holds several entries; their conditions need not be identical. Identical values can stand only once.", "data": [{"smiles": "CC(=O)OC1C=CC(=O)OC1C1OC1C", "note": "[Asperlin, 6,7-Anhydro-2,3,8-trideoxy-D-galacto-oct-2-enoic acidδ-lactone 4-acetate]", "values": [{"measurement": "% Inhibition of Cell Adhesion", "setting": "Asperlin 1.56 μg/ml", "result": -8, "unit": "%"}, {"measurement": "Average Percent Cells Bound", "setting": "Asperlin 1.56 μg/ml", "result": 26, "unit": "%"}, {"measurement": "Bound Cell Fluorescence", "setting": "Asperlin 1.56 μg/ml", "result": "1551 fluorescence units/well and 1755 fluorescence units/well"}, {"measurement": "Percent Cells Bound", "setting": "Asperlin 1.56 μg/ml", "result": "25% and 27%"}, {"measurement": "% Inhibition of Cell Adhesion", "setting": "Asperlin 3.125 μg/ml", "result": -36, "unit": "%"}, {"measurement": "Average Percent Cells Bound", "setting": "Asperlin 3.125 μg/ml", "result": 33, "unit": "%"}, {"measurement": "Bound Cell Fluorescence", "setting": "Asperlin 3.125 μg/ml", "result": "1862 fluorescence units/well and 2077 fluorescence units/well"}, {"measurement": "Percent Cells Bound", "setting": "Asperlin 3.125 μg/ml", "result": "32% and 34%"}, {"measurement": "% Inhibition of Cell Adhesion", "setting": "Asperlin 6.25 μg/ml", "result": 29, "unit": "%"}, {"measurement": "Average Percent Cells Bound", "setting": "Asperlin 6.25 μg/ml", "result": 17, "unit": "%"}, {"measurement": "Bound Cell Fluorescence", "setting": "Asperlin 6.25 μg/ml", "result": "1003 fluorescence units/well and 1161 fluorescence units/well"}, {"measurement": "Percent Cells Bound", "setting": "Asperlin 6.25 μg/ml", "result": "15% and 19%"}, {"measurement": "% Inhibition of Cell Adhesion", "setting": "Asperlin 12.5 μg/ml", "result": 50, "unit": "%"}, {"measurement": "Average Percent Cells Bound", "setting": "Asperlin 12.5 μg/ml", "result": 12, "unit": "%"}, {"measurement": "Bound Cell Fluorescence", "setting": "Asperlin 12.5 μg/ml", "result": "589 fluorescence units/well and 768 fluorescence units/well"}, {"measurement": "Percent Cells Bound", "setting": "Asperlin 12.5 μg/ml", "result": "10% and 13%"}, {"measurement": "% Inhibition of Cell Adhesion", "setting": "Asperlin 25 μg/ml", "result": 83, "unit": "%"}, {"measurement": "Average Percent Cells Bound", "setting": "Asperlin 25 μg/ml", "result": 4, "unit": "%"}, {"measurement": "Bound Cell Fluorescence", "setting": "Asperlin 25 μg/ml", "result": "171 fluorescence units/well and 320 fluorescence units/well"}, {"measurement": "Percent Cells Bound", "setting": "Asperlin 25 μg/ml", "result": "2.6% and 5.3%"}, {"measurement": "% Inhibition of Cell Adhesion", "setting": "Asperlin 50 μg/ml", "result": 94, "unit": "%"}, {"measurement": "Average Percent Cells Bound", "setting": "Asperlin 50 μg/ml", "result": 1.4, "unit": "%"}, {"measurement": "Bound Cell Fluorescence", "setting": "Asperlin 50 μg/ml", "result": "82 fluorescence units/well and 77 fluorescence units/well"}, {"measurement": "Percent Cells Bound", "setting": "Asperlin 50 μg/ml", "result": "1.4% and 1.3%"}, {"measurement": "% Inhibition of Cell Adhesion", "setting": "Asperlin 100 μg/ml", "result": 97.5, "unit": "%"}, {"measurement": "Average Percent Cells Bound", "setting": "Asperlin 100 μg/ml", "result": 0.6, "unit": "%"}, {"measurement": "Bound Cell Fluorescence", "setting": "Asperlin 100 μg/ml", "result": "45 fluorescence units/well and 31 fluorescence units/well"}, {"measurement": "Percent Cells Bound", "setting": "Asperlin 100 μg/ml", "result": "0.7% and 0.5%"}, {"measurement": "% Inhibition of Cell Adhesion", "setting": "Asperlin 200 μg/ml", "result": 98, "unit": "%"}, {"measurement": "Average Percent Cells Bound", "setting": "Asperlin 200 μg/ml", "result": 0.5, "unit": "%"}, {"measurement": "Bound Cell Fluorescence", "setting": "Asperlin 200 μg/ml", "result": "29 fluorescence units/well and 28 fluorescence units/well"}, {"measurement": "Percent Cells Bound", "setting": "Asperlin 200 μg/ml", "result": 0.5, "unit": "%"}, {"measurement": "Effect on adhesion of activated β2 integrin expressing cells to ICAM-1 (in words)", "setting": "summary of Table I", "result": "blocks the adhesion of activated β2 integrin expressing cells to ICAM-1"}]}]}
